Our source for the IC50 values is US20230365589A1, “NOVEL AMINE DERIVATIVES” (Sumitomo Pharma Co., Ltd., priority 2020, published 2023).

Like-named read-outs stand apart in the source and are kept apart here.

Common to all, as to type: biochemical
In one test the target is T1, DYRK1A (Homo sapiens, UniProt Q13627).
T1 construct: purchased Carna Biosciences, Inc. 04-130
In words: Inhibition test on activity of DYRK family, mobility shift assay (MSA): DYRK1A. The procedure: (§1) [Inhibition Test on Activity of DYRK Family (DYRK1A, DYRK1B, DYRK2, and DYRK3)]
(§2) The kinase activity was measured by mobility shift assay (MSA) method using QuickScout Screening Assist™ MSA (commercially available kit manufactured by Carna Biosciences, Inc.). The substrate of the kinase reaction used was an FITC-labeled DYRKtide peptide included in the kit. An assay buffer [20 mM HEPES, 0.01% Triton X-100™, 2 mM dithiothreitol, pH 7.5]was used to create a substrate mixture solution with a substrate (4 μM), MgCl2(20 mM), and ATP (DYRK1A: 100 μM; DYRK1B: 200 μM; DYRK2: 40 μM; and DYRK3: 20 μM). In addition, kinases (DYRK1A: manufactured by Carna Biosciences, Inc., Cat. No. 04-130; DYRK1B: manufactured by Carna Biosciences, Inc., Cat. No. 04-131; DYRK2; manufactured by Carna Biosciences, Inc., Cat. No. 04-132; and DYRK3; manufactured by Carna Biosciences, Inc., Cat. No. 04-133) were diluted with the assay buffer to prepare enzyme solutions (DYRK1A: 0.2 ng/μL; DYRK1B: 0.08 ng/μL; DYRK2: 0.04 ng/μL; and DYRK3: 0.25 ng/μL). The 10 mM solution of the test compound in DMSO was further diluted with DMSO to 10 levels of the concentration (0.00003 mM, 0.0001 mM, 0.0003 mM, 0.001 mM, 0.003 mM, 0.01 mM, 0.03 mM, 0.1 mM, 0.3 mM, and 1 mM), each of which was subjected to 25-fold dilution with the assay buffer to obtain a drug solution (4% DMSO solution). 5 μL of the drug solution or a control solution (4% DMSO-assay buffer), 5 μL of the substrate mixture solution, and 10 μL of the enzyme solution were mixed in the wells of a polypropylene 384-well plate and allowed to react at room temperature for 1 hour, and then the reaction was quenched by adding 60 μL of the termination buffer included in the kit. Subsequently, the quantities of the substrates (S) and the phosphorylated substrate (P) in the reaction solution were measured using LabChip EZ Reader II system (manufactured by Caliper Life Sciences) according to the protocol of the assay kit.
(§3) The heights of the peaks of the “substrate” and the “phosphorylated substrate” were expressed as S and P, respectively, and a blank containing the assay buffer instead of the enzyme solution was also measured.
(§4) The inhibition rate (%) of the test compound was calculated according to the following equation:
(§5) Inhibition rate (%)=(1−(C−A)/(B−A))×100 • wherein, A, B, and C represent P/(P+S) of the blank well, P/(P+S) of the control solution well, and P/(P+S) of the compound-containing well, respectively.
(§6) The IC50 value was calculated via a regression analysis of the inhibition rate and the test compound concentration (logarithmic value).

In another test the target is T2, DYRK2 (Homo sapiens, UniProt Q92630).
T2 construct: purchased Carna Biosciences, Inc. 04-132
T2 sequence (Q92630 74-601 limits assumed): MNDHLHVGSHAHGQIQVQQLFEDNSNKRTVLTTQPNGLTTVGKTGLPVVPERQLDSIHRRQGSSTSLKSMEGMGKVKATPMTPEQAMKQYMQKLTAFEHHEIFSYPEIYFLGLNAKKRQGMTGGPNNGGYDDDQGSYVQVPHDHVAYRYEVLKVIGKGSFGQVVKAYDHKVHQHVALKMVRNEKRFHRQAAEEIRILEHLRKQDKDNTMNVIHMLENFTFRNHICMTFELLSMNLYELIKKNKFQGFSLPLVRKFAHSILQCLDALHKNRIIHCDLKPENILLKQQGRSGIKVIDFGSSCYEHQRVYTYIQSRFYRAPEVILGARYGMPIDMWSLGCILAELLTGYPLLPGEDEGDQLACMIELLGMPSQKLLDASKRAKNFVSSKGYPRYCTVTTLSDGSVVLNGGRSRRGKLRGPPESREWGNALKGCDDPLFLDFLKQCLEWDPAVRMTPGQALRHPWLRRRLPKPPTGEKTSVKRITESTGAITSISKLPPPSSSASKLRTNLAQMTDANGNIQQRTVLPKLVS
In words: Inhibition test on activity of DYRK family, mobility shift assay (MSA): DYRK2. The procedure:
as §1, §2, §3, §4, §5, §6
(§7) The inhibiting activities of representative compounds of the present invention are shown against DYRK1A, DYRK1B, DYRK2, and DYRK3 in Tables.

The target of another test is T3, DYRK3 (Homo sapiens, UniProt O43781).
T3 construct: purchased Carna Biosciences, Inc. 04-133
T3 sequence (O43781 1-568 isoform O43781-2): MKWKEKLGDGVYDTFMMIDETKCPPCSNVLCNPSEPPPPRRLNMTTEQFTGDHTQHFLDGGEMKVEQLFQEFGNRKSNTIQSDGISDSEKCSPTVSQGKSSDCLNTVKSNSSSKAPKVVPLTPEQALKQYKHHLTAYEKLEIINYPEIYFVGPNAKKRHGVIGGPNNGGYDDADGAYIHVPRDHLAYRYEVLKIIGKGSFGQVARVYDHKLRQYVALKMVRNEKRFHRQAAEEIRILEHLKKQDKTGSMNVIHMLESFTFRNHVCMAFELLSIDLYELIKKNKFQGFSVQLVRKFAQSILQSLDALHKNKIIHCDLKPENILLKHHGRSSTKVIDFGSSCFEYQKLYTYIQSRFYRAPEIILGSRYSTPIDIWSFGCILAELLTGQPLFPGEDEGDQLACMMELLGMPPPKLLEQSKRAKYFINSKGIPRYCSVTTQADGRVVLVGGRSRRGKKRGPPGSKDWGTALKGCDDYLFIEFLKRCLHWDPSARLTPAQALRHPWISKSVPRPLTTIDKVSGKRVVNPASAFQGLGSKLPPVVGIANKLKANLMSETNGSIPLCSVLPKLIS
In words: Inhibition test on activity of DYRK family, mobility shift assay (MSA): DYRK3. The procedure:
as §1, §2, §3, §4, §5, §6, §7

Where [1] appears, read: read-out: Inhibitory activity DYRK 1A.
Setting [2] is: read-out: Inhibitory activity DYRK 2.
[3] abbreviates: read-out: Inhibitory activity DYRK 3.
Where [4] appears, read: MSA, FITC-labeled DYRKtide peptide, ATP 100 μM, read-out: Inhibitory activity DYRK 1A (IC50 class).
Setting [5] is: MSA, FITC-labeled DYRKtide peptide, ATP 40 μM, read-out: Inhibitory activity DYRK 2 (IC50 class).
Where [6] appears, read: MSA, FITC-labeled DYRKtide peptide, ATP 20 μM, read-out: Inhibitory activity DYRK 3 (IC50 class).

For `C[C@@H]1NC(=O)N(c2nc3c4c(ccc3s2)OCC4)[C@@H]1CN1CCC(F)(F)C1` [Example 117, (4S,5R)-5-[(3,3-difluoropyrrolidin-1-yl)methyl]-1-(7,8-dihydrofuro[3,2-e][1,3]benzothiazol-2-yl)-4-methylimidazolidin-2-one], the IC50 at DYRK1A (setting [1]) is 10 to 100 nM; at DYRK2 (setting [2]) it was not below 1000 nM; at DYRK3 (setting [3]) it was not below 1000 nM.

As for `O=C1N[C@H]2CN(C3CC3)C[C@H]2N1c1nc2c3c(ccc2s1)OCC3` [Example 101], the IC50 on DYRK1A (setting [1]) is 10 to 100 nM; at DYRK2 (setting [2]), not below 1000 nM; on DYRK3 (setting [3]) it was not below 1000 nM.

`O=C1N[C@@H]2CCOC[C@H]2N1c1nc2c3c(ccc2s1)OCC3` [Example 125]: the IC50 at DYRK1A (setting [1]) fell in the range of 10 to 100 nM; on DYRK2 (setting [2]) it was 100 to 1000 nM; on DYRK3 (setting [3]), 100 to 1000 nM.

As to `O=C1N[C@H]2CCCNC[C@H]2N1c1nc2c3c(ccc2s1)OCC3` [Example 4], the IC50 on DYRK1A (setting [4]) was 100 to 1000 nM; on DYRK2 (setting [5]) it was not below 1000 nM; on DYRK3 (setting [6]), 100 to 1000 nM.

Take `O=C1C[C@@H]2[C@H](CO1)NC(=O)N2c1nc2c3c(ccc2s1)OCC3` [Example 152]: the IC50 is less than 10 nM at DYRK1A (setting [4]), 10 to 100 nM at DYRK2 (setting [5]) and 10 to 100 nM at DYRK3 (setting [6]).

Turning to `C[C@@H]1NC(=O)N(c2nc3c4c(ccc3s2)OCC4)[C@@H]1CN1CC(F)(F)C1` [Example 116, (4S,5R)-5-[(3,3-difluoroazetidin-1-yl)methyl]-1-(7,8-dihydrofuro[3,2-e][1,3]benzothiazol-2-yl)-4-methylimidazolidin-2-one], the IC50 on DYRK1A (setting [1]) is 10 to 100 nM; on DYRK2 (setting [2]), not below 1000 nM; on DYRK3 (setting [3]), not below 1000 nM.

Regarding `O=C1N[C@H]2COCC[C@H]2N1c1nc2c3c(ccc2s1)OCO3` [Example 21, (3aR,7aR)-1-(2H-[1,3]dioxolo[4,5-e][1,3]benzothiazol-7-yl)hexahydropyrano[3,4-d]imidazol-2(3H)-one], the figures for the IC50 at DYRK1A (setting [4]), at DYRK2 (setting [5]) and at DYRK3 (setting [6]) were less than 10 nM, 100 to 1000 nM and 100 to 1000 nM, respectively.

As for `CC1(C)C[C@H]2[C@@H](CO1)NC(=O)N2c1nc2c3c(ccc2s1)OCC3` [Example 123], the IC50 at DYRK1A (setting [1]), on DYRK2 (setting [2]) and at DYRK3 (setting [3]) was not below 1000 nM each time.

With `CN1CC[C@H]2NC(=O)N(c3nc4c5c(ccc4s3)OCC5)[C@@H]2C12CC2` [Example 70], the IC50 is not below 1000 nM at DYRK2 (setting [5]) and 100 to 1000 nM on DYRK3 (setting [6]).

Turning to `CN1CC[C@@H]2NC(=O)N(c3nc4c5c(ccc4s3)OCC5)[C@@H]2C12CC2` [Example 69], the IC50 at DYRK2 (setting [5]) and on DYRK3 (setting [6]) was not below 1000 nM throughout.

On to `O=C1N[C@H]2CCN(C3COC3)C[C@H]2N1c1nc2c3c(ccc2s1)OCC3` (racemic) [Example 71, rac-(3aR,7aS)-3-(7,8-dihydrofuro[3,2-e][1,3]benzothiazol-2-yl)-5-(oxetan-3-yl)octahydro-2H-imidazo[4,5-c]pyridin-2-one], for which the IC50 on DYRK2 (setting [5]) and at DYRK3 (setting [6]) was not below 1000 nM throughout.

In the case of `O=C1N[C@H]2CNCC[C@H]2N1c1nc2c3c(ccc2s1)OCO3` [Example 52], the IC50 at DYRK2 (setting [5]) and on DYRK3 (setting [6]) was 100 to 1000 nM in each case.

Regarding `C#CCN1CC[C@H]2NC(=O)N(c3nc4c5c(ccc4s3)OCC5)[C@H]2C1` (single isomer, unassigned) [Example 113], the results for the IC50 on DYRK1A (setting [1]) and on DYRK2 (setting [2]) were 100 to 1000 nM and not below 1000 nM, respectively.

Turning to `O=C1N[C@H]2COCC[C@H]2N1c1nc2c3c(ccc2s1)OCCO3` [Example 37, (3aR,7aR)-1-(7,8-dihydro[1,4]dioxino[2,3-e][1,3]benzothiazol-2-yl)hexahydropyrano[3,4-d]imidazol-2(3H)-one], the IC50 on DYRK2 (setting [5]) and at DYRK3 (setting [6]) was 100 to 1000 nM each time.

Take `O=C1N[C@H]2CCN(C3COC3)C[C@@H]2N1c1nc2c3c(ccc2s1)OCC3` [Example 19, (3aS,7aS)-3-(7,8-dihydrofuro[3,2-e][1,3]benzothiazol-2-yl)-5-(oxetan-3-yl)octahydro-2H-imidazo[4,5-c]pyridin-2-one]: the IC50 at DYRK2 (setting [5]) and on DYRK3 (setting [6]) was 100 to 1000 nM each time.
